Test results taken from patent publication US20240327393A1 (SIRONAX LTD., priority 2021, published 2024).

tested on: HT-1080 (ATCC, CCL-121) cells; test: HT-1080 cell viability assay with ferroptosis inducer RSL3 (Cell Titer-Glo); format: cell-based; conditions: Homo sapiens; HT-1080 cells treated with RSL3; 3-fold, 10-point dilution, 1.1 μM highest concentration; Table 2; read-out: EC50 (nM), ferroptosis inhibitory activity
In short: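 HT-1080 cells (6000 per well) were cultured overnight at 37 °C, then co-treated with RSL3 and compound in a 3-fold, 10-point series topping at 1.1 μM. Viability was read by CellTiter-Glo luminescence and normalized to untreated controls. EC50 came from a sigmoidal non-linear regression fit.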

Structure (SMILES)	EC50
CN1C(=O)c2ccc(Nc3ccc(N4CCC(C(F)(F)F)CC4)cc3)cc2C1=O [Compound 201, 2-methyl-5-((4-(4-(trifluoromethyl)piperidin-1-yl)phenyl)amino) isoindoline-1,3-dione]	0.1 to 100 nM
CN1Cc2cc(Nc3ccc(N4CCC(C(F)(F)F)CC4)cc3)cc(F)c2C1=O [Compound 202, 7-fluoro-2-methyl-5-((4-(4-(trifluoromethyl)piperidin-1-yl)phenyl)amino) isoindolin-1-one]	0.1 to 100 nM
CN1Cc2cc(Nc3ccc(N4CCC(C(F)(F)F)CC4)cc3)cc(Cl)c2C1=O [Compound 203, 7-chloro-2-methyl-5-((4-(4-(trifluoromethyl)piperidin-1-yl)phenyl)amino) isoindolin-1-one]	0.1 to 100 nM
CN1Cc2cc(Nc3ccc(N4CCC(C(F)(F)F)CC4)c(F)c3)ccc2C1=O [Compound 204, 5-((3-fluoro-4-(4-(trifluoromethyl)piperidin-1-yl)phenyl)amino)-2-methylisoindolin-1-one]	0.1 to 100 nM
CC(C)(C)NC(=O)N1Cc2ccc(Nc3ccc(N4CCC(C(F)(F)F)CC4)cc3)cc2C1 [Compound 205, N-(tert-butyl)-5-((4-(4-(trifluoromethyl)piperidin-1-yl)phenyl)amino) isoindoline-2-carboxamide]	0.1 to 100 nM
Cn1cnc(N2Cc3cc(Nc4ccc(N5CCC(C(F)(F)F)CC5)cc4)ccc3C2=O)c1 [Compound 206, 2-(1-methyl-1H-imidazol-4-yl)-5-((4-(4-(trifluoromethyl)piperidin-1-yl)phenyl)amino)isoindolin-1-one]	0.1 to 100 nM
CC1CN(c2ccc(Nc3ccc4c(c3)nnn4C)cc2)CC(C)O1 (stereo not drawn) [Compound 207, N-(4-(2,6-dimethylmorpholino)phenyl)-1-methyl-1H-benzo[d][1,2,3]triazol-5-amine]	0.1 to 100 nM
CN1CCC(N2Cc3cc(Nc4ccc(N5CCC(C(F)(F)F)CC5)cc4)ccc3C2=O)CC1 [Compound 208, 2-(1-methylpiperidin-4-yl)-5-((4-(4-(trifluoromethyl)piperidin-1-yl)phenyl)amino)isoindolin-1-one]	0.1 to 100 nM
O=C1c2ccc(Nc3ccc(N4CCC(C(F)(F)F)CC4)cc3)cc2CN1C1CC1 [Compound 209, 2-cyclopropyl-5-((4-(4-(trifluoromethyl)piperidin-1-yl)phenyl)amino) isoindolin-1-one]	0.1 to 100 nM
CC(C)N1Cc2cc(Nc3ccc(N4CCC(C(F)(F)F)CC4)cc3)ccc2C1=O [Compound 210, 2-isopropyl-5-((4-(4-(trifluoromethyl)piperidin-1-yl)phenyl)amino) isoindolin-1-one]	0.1 to 100 nM
O=C1c2ccc(Nc3ccc(N4CCC(C(F)(F)F)CC4)cc3)cc2CN1CC=C(F)F [Compound 215, 2-(3,3-difluoroallyl)-5-((4-(4-(trifluoromethyl)piperidin-1-yl)phenyl)amino)isoindolin-1-one]	0.1 to 100 nM
Cn1c(=O)c2ccc(Nc3ccc(N4CCC(C(F)(F)F)CC4)c(F)c3)cc2n1C(=O)OC(C)(C)C [Compound 216, tert-butyl 6-((3-fluoro-4-(4-(trifluoromethyl)piperidin-1-yl)phenyl)amino)-2-methyl-3-oxo-2,3-dihydro-1H-indazole-1-carboxylate]	0.1 to 100 nM
CCn1c2cc(Nc3ccc(N4CCC(C(F)(F)F)CC4)cc3)ccc2c(=O)n1C [Compound 218, 1-ethyl-2-methyl-6-((4-(4-(trifluoromethyl)piperidin-1-yl)phenyl)amino)-1,2-dihydro-3H-indazol-3-one]	0.1 to 100 nM
Cn1[nH]c2cc(Nc3ccc(N4CCC(C(F)(F)F)CC4)c(F)c3)ccc2c1=O [Compound 219, 6-((3-fluoro-4-(4-(trifluoromethyl)piperidin-1-yl)phenyl)amino)-2-methyl-1,2-dihydro-3H-indazol-3-one]	0.1 to 100 nM
Cn1c(=O)n(C)c2cc(Nc3ccc(N4CCC(C(F)(F)F)CC4)cc3)ccc21 [Compound 220, 1,3-dimethyl-5-((4-(4-(trifluoromethyl)piperidin-1-yl)phenyl)amino)-1,3-dihydro-2H-benzo[d]imidazol-2-one]	0.1 to 100 nM
CC1CCC(N2Cc3cc(Nc4ccc(N5CCC(C(F)(F)F)CC5)cc4)ccc3C2=O)CC1 (stereo not drawn) [Compound 221, 2-(4-methylcyclohexyl)-5-((4-(4-(trifluoromethyl)piperidin-1-yl)phenyl)amino)isoindolin-1-one]	0.1 to 100 nM
Cn1c(=O)c2ccc(Nc3ccc(N4CCC(C(F)(F)F)CC4)cc3)cc2n1C [Compound 224, 1,2-dimethyl-6-((4-(4-(trifluoromethyl)piperidin-1-yl)phenyl)amino)-1,2-dihydro-3H-indazol-3-one]	0.1 to 100 nM
CN1Cc2cc(Nc3ccc(N4CCCCC4)c(Cl)c3)ccc2C1=O [Compound 225, 5-((3-chloro-4-(piperidin-1-yl)phenyl)amino)-2-methylisoindolin-1-one]	0.1 to 100 nM
Cc1cc(C)cc(Nc2ccc3c(c2)CN(C)C3=O)c1 [Compound 226, 5-((3,5-dimethylphenyl)amino)-2-methylisoindolin-1-one]	0.1 to 100 nM
CN1Cc2cc(Nc3ccc(-c4ccccc4)cc3)ccc2C1=O [Compound 228, 5-([1,1′-biphenyl]-4-ylamino)-2-methylisoindolin-1-one]	0.1 to 100 nM
CN1Cc2cc(Nc3ccc4c(c3)OCCO4)ccc2C1=O [Compound 229, 5-((2,3-dihydrobenzo[b][1,4]dioxin-6-yl)amino)-2-methylisoindolin-1-one]	0.1 to 100 nM
Cc1ccc(Cl)c(Nc2ccc3c(c2)CN(C)C3=O)c1 [Compound 230, 5-((2-chloro-5-methylphenyl)amino)-2-methylisoindolin-1-one]	0.1 to 100 nM
COc1ccc(C)cc1Nc1ccc2c(c1)CN(C)C2=O [Compound 231, 5-((2-methoxy-5-methylphenyl)amino)-2-methylisoindolin-1-one]	0.1 to 100 nM
CN1Cc2cc(Nc3ccc(Oc4ccc(Cl)cc4)cc3)ccc2C1=O [Compound 232, 5-((4-(4-chlorophenoxy)phenyl)amino)-2-methylisoindolin-1-one]	0.1 to 100 nM
CN1Cc2cc(Nc3ccc4nccn4c3)ccc2C1=O [Compound 233, 5-(imidazo[1,2-a]pyridin-6-ylamino)-2-methylisoindolin-1-one]	100 to 1000 nM
CN1Cc2cc(Nc3cccc(N(C)C)c3)ccc2C1=O [Compound 234, 5-((3-(dimethylamino)phenyl)amino)-2-methylisoindolin-1-one]	0.1 to 100 nM
CN1Cc2cc(Nc3ccc(N(C)C)nc3)ccc2C1=O [Compound 235, 5-((6-(dimethylamino)pyridin-3-yl)amino)-2-methylisoindolin-1-one]	0.1 to 100 nM
Cc1cc(C)c(Nc2ccc3c(c2)CN(C)C3=O)cn1 [Compound 236, 5-((4,6-dimethylpyridin-3-yl)amino)-2-methylisoindolin-1-one]	0.1 to 100 nM
COc1cc(Nc2ccc3c(c2)CN(C)C3=O)ccc1N1CCC(C(F)(F)F)CC1 [Compound 243, 5-((3-methoxy-4-(4-(trifluoromethyl)piperidin-1-yl)phenyl)amino)-2-methylisoindolin-1-one]	0.1 to 100 nM

Continued, values first:

EC50	Structure (SMILES)
0.1 to 100 nM	CN1Cc2cc(Nc3ccc(N4CCC(C)(C)CC4)cc3)ccc2C1=O [Compound 211, 5-((4-(4,4-dimethylpiperidin-1 yl)phenyl)amino)-2-methylisoindolin-1-one]
0.1 to 100 nM	CN1Cc2cc(Nc3ccc(N4CCCCC4)cc3)ccc2C1=O [Compound 217, 2-methyl-5-((4-(piperidin-1-yl)phenyl)amino)isoindolin-1-one]
0.1 to 100 nM	CN1Cc2cc(Nc3ccc(N4CCC(C(F)(F)F)C4)cc3)ccc2C1=O (stereo not drawn) [Compound 222, 2-methyl-5-((4-(3-(trifluoromethyl)pyrrolidin-1-yl)phenyl)amino) isoindolin-1-one]
0.1 to 100 nM	CN1Cc2cc(Nc3ccc(N4CC(C)(C)C4)cc3)ccc2C1=O [Compound 223, 5-((4-(3,3-dimethylazetidin-1-yl)phenyl)amino)-2-methylisoindolin-1-one]
0.1 to 100 nM	CN1Cc2cc(Nc3ccc(N(C)C)cc3)ccc2C1=O [Compound 227, 5-((4-(dimethylamino)phenyl)amino)-2-methylisoindolin-1-one]
0.1 to 100 nM	COCCOc1ccc(Nc2ccc3c(c2)CN(C)C3=O)cc1 [Compound 237, 5-((4-(2-methoxyethoxy)phenyl)amino)-2-methylisoindolin-1-one]
1000 to 10000 nM	CN1Cc2cc(Nc3ccc(CN4CCCC4)cc3)ccc2C1=O [Compound 238, 2-methyl-5-((4-(pyrrolidin-1-ylmethyl)phenyl)amino)isoindolin-1-one]
0.1 to 100 nM	CC1CCCCN1c1ccc(Nc2ccc3c(c2)CN(C)C3=O)cc1 (stereo not drawn) [Compound 240, 2-methyl-5-((4-(2-methylpiperidin-1-yl)phenyl)amino)isoindolin-1-one]
0.1 to 100 nM	CC1CCCN(c2ccc(Nc3ccc4c(c3)CN(C)C4=O)cc2)C1 (stereo not drawn) [Compound 241, 2-methyl-5-((4-(3-methylpiperidin-1-yl)phenyl)amino)isoindolin-1-one]
0.1 to 100 nM	CN1Cc2cc(Nc3ccc(N4CCCC(C(F)(F)F)C4)cc3)ccc2C1=O (stereo not drawn) [Compound 242, 2-methyl-5-((4-(3-(trifluoromethyl)piperidin-1-yl)phenyl)amino) isoindolin-1-one]
0.1 to 100 nM	CN1Cc2cc(Nc3ccc(N4CC5(CCC5)C4)cc3)ccc2C1=O [Compound 244, 5-((4-(2-azaspiro[3.3]heptan-2-yl)phenyl)amino)-2-methylisoindolin-1-one]
0.1 to 100 nM	CN1Cc2cc(Nc3ccc(N4C[C@H]5CC[C@@H]4C5)cc3)ccc2C1=O [Compound 245, 5-((4-((1R,4S)-2-azabicyclo[2.2.1]heptan-2-yl)phenyl)amino)-2-methylisoindolin-1-one]
0.1 to 100 nM	CN1Cc2cc(Nc3ccc(N4CC5(CCCC5)C4)cc3)ccc2C1=O [Compound 246, 5-((4-(2-azaspiro[3.4]octan-2-yl)phenyl)amino)-2-methylisoindolin-1-one]
